Experimental data from patent publication US4277474A, “Treatment of allergic symptoms with propanone derivatives” (Nippon Zoki Pharmaceutical Co., Ltd., priority 1978, dated 1981).
Structures can show the parent of a compound that is named as a salt. Where two headings read alike, the source gives them in different places.

What was measured:
Peritoneal cavity cells = test: Inhibitory effect on histamine release from sensitized peritoneal cavity cells; assay type: cell-based, rat (Wistar-strain); design: Released histamine, fluorescence intensity / Residual histamine, fluorescence intensity / Total histamine, fluorescence intensity: unit not given here; settings: for Net release rate: release not caused by antigen-antibody reaction deducted; for inhibition at 10 µM / inhibition at 50 µM / inhibition at 100 µM / inhibition at 200 µM: Rattus norvegicus; for inhibition at 50 µM / inhibition at 100 µM: read-out: Inhibitory effect on histamine release; for inhibition at 200 µM: 0.2 mM
Protocol: The inhibitory effect on histamine release of the compounds according to the present invention was investigated as follows. […] These cells were suspended in a phosphoric acid buffer solution (containing 0.1% of gelatin) and each 0.5 ml portion of this suspension was taken in a polyethylene tube. 1 ml each of solutions of various concentrations of test compound and 0.5 ml of 200 μg/ml of ovalbumin solution were added therein. They were incubated for 20 minutes at 37° C. to measure the histamine release rate. The amount of histamine was measured by a modified Shore method using fluorescence.

SRS-A = test: Anti-SRS-A effect on guinea pig's ileum (Magnus method)
Protocol: The anti-SRS-A effect of the compounds according to the present invention on guinea pig's ileum was measured by Magnus method. […] One minute thereafter, the ileum contraction inhibiting rate (%) was measured with use of 1 ml of 80% ethanol solution of SRS-A (150 mg/ml).

[1] = Acute toxicity in mice (LD50, Litchfield-Wilcoxon); settings: mouse, in vivo, ICR male mice
Protocol: Acute toxicity tests were carried out by intraperitoneal or peroral administration of the compound according to the present invention to groups of 10 ICR-strain male mice (weighing 20 g on the average), and each LD50 value was determined by Litchfield-Wilcoxon Method.

[2] = 0.05 mM, average ± S.E. of 3 or 4 experiments

Row | SMILES | inhibition at 50 µM (Peritoneal cavity cells; [2]) | inhibition at 100 µM (Peritoneal cavity cells; 0.1 mM) | ileum contraction inhibiting rate (SRS-A; 10^-4 g/ml) | ileum contraction inhibiting rate (SRS-A; 10^-5 g/ml) | ileum contraction inhibiting rate (SRS-A; 10^-6 g/ml) | other results
1 | O=C(O)c1cc(=O)c2c(OCC(O)COc3cccc4oc(C(=O)O)cc(=O)c34)cccc2o1 [DSCG, disodium chromoglicate, reference compound] | 29 ± 6.1% | 70% | – | – | – | Histamine release rate (Peritoneal cavity cells; 0.01 mM): 36.8%; Net release rate (Peritoneal cavity cells; 0.01 mM): 22.9%; inhibition at 10 µM (Peritoneal cavity cells; 0.01 mM): 30%
2 | Cc1ccc(C(=O)C(C)CN2CCN(CC(C)C)CC2)cc1.Cl.Cl (stereo not shown) [Example 1, 2,4'-dimethyl-3-(4-isobutylpiperazino)propiophenone dihydrochloride] | – | – | 64.7 ± 7.51% | 6.7 ± 3.33% | 0 ± 0% | –
3 | CC(CN(C)C)C(=O)c1ccc2ccccc2c1 (stereo not drawn) [Example 3, 2-methyl-3-dimethylamino-β-propionaphthone hydrochloride] | – | – | 91.3 ± 3.84% | 47.0 ± 9.50% | 1.3 ± 0.88% | –
4 | CC(CN1CCOCC1)C(=O)c1ccc2ccccc2c1 (stereo not drawn) [Example 4, 2-methyl-3-morpholino-β-propionaphthone hydrochloride] | – | – | 96.7 ± 3.33% | 36.3 ± 14.19% | 13.0 ± 12.50% | Histamine release rate (Peritoneal cavity cells; 0.01 mM): 44.2%; Released histamine, fluorescence intensity (Peritoneal cavity cells; 0.01 mM): 212; Residual histamine, fluorescence intensity (Peritoneal cavity cells; 0.01 mM): 268; Total histamine, fluorescence intensity (Peritoneal cavity cells; 0.01 mM): 480; Net release rate (Peritoneal cavity cells; 0.01 mM): 30.3%; inhibition at 10 µM (Peritoneal cavity cells; 0.01 mM): 7.4%; LD50 ([1]; ip, intraperitoneal): 190 mg/kg; LD50 ([1]; po, peroral): 540 mg/kg
5 | CC(CN1CCCC1)C(=O)c1ccc2ccccc2c1 (stereo not drawn) [Example 6, 2-methyl-3-pyrrolidino-β-propionaphthone hydrochloride] | – | 48% | 100.0 ± 0% | 63.0 ± 6.66% | 0.3 ± 0.33% | –
6 | COc1ccc(C(=O)C(C)CN2CCCCC2)cc1OC.Cl (stereo not shown) [Example 7, 3',4'-dimethoxy-2-methyl-3-piperidinopropiophenone hydrochloride] | – | – | 85.7 ± 0.67% | 8.3 ± 2.85% | 1.0 ± 1.00% | –
7 | CC(CN1CCCCC1)C(=O)c1ccc2c(c1)CCCC2 (stereo not shown) [Example 9, 2-methyl-3-piperidino-5',6',7',8'-tetrahydro-2'-propionaphthone hydrochloride] | – | 33.7% | – | – | – | –
8 | CC1CCCN(CC(C)C(=O)c2ccc3ccccc3c2)C1 (stereo not drawn) [Example 10, 2-methyl-3-(3-methylpiperidino)-β-propionaphthone hydrochloride] | 18 ± 5.4% | 49.9% | – | – | – | –
9 | CCN(CC)CC(C)C(=O)c1ccc(C)cc1.Cl (stereo not shown) [Example 11, 2,4'-dimethyl-3-diethylaminopropiophenone hydrochloride] | – | – | 68.0 ± 13.05% | 0.3 ± 0.33% | 3.0 ± 3.00% | –
10 | Cc1ccc(C(=O)C(C)CN2CCOCC2)cc1.Cl (stereo not shown) [Example 12, 2,4'-dimethyl-3-morpholinopropiophenone hydrochloride] | – | – | 69.7 ± 12.13% | 20.7 ± 5.61% | 8.3 ± 6.89% | –
11 | Cc1ccc(C(=O)C(C)CN2CCCC2)cc1.Cl (stereo not shown) [Example 13, 2,4'-dimethyl-3-pyrrolidinopropiophenone hydrochloride] | – | – | 80.7 ± 6.98% | 2.7 ± 2.67% | 1.3 ± 1.33% | –
12 | Cc1ccc(C(=O)C(C)CN2CCN(C)CC2)cc1.Cl.Cl (stereo not shown) [Example 14, 2,4'-dimethyl-3-(4-methylpiperazino)propiophenone dihydrochloride] | – | – | 58.0 ± 4.36% | 10.3 ± 7.88% | 10.3 ± 7.98% | –
13 | CCN1CCN(CC(C)C(=O)c2ccc(C)cc2)CC1.Cl.Cl (stereo not shown) [Example 15, 2,4'-dimethyl-3-(4-ethylpiperazino)propiophenone dihydrochloride] | – | – | 69.7 ± 3.71% | 20.7 ± 6.12% | 0.3 ± 0.33% | –
14 | Cc1ccc(C(=O)C(C)CN2CCN(Cc3ccccc3)CC2)cc1 (stereo not shown) [Example 16, 2,4'-dimethyl-3-(4-benzylpiperazino)propiophenone dihydrochloride] | – | – | – | – | – | inhibition at 200 µM (Peritoneal cavity cells): 72.4%
15 | COc1cc(C(=O)C(C)CN2CCCCC2)ccc1O (stereo not shown) [Example 18, 4'-hydroxy-3'-methoxy-2-methyl-3-piperidinopropiophenone hydrochloride] | – | – | – | – | – | inhibition at 200 µM (Peritoneal cavity cells): 83.7%
16 | CC(CN1CCCCC1)C(=O)c1cccc2ccccc12 (stereo not drawn) [Example 19, 2-methyl-3-piperidino-α-propionaphthone hydrochloride] | – | – | – | – | – | inhibition at 200 µM (Peritoneal cavity cells): 100%
17 | CCCCCCc1ccc(C(=O)C(C)CN2CCCCC2)cc1 (stereo not shown) [Example 22, 4'-hexyl-2-methyl-3-piperidinopropiophenone hydrochloride] | 82 ± 1.7% | 87.2% | – | – | – | –
18 | CC1CCN(CC(C)C(=O)c2ccc3ccccc3c2)CC1 (stereo not drawn) [Example 23, 2-methyl-3-(4-methylpiperidino)-β-propionaphthone hydrochloride] | 21.4 ± 2.4% | 65.8% | – | – | – | –

Row | SMILES | inhibition at 50 µM (Peritoneal cavity cells; [2]) | inhibition at 100 µM (Peritoneal cavity cells; 0.1 mM) | ileum contraction inhibiting rate (SRS-A; 10^-4 g/ml) | ileum contraction inhibiting rate (SRS-A; 10^-5 g/ml) | ileum contraction inhibiting rate (SRS-A; 10^-6 g/ml) | other results
19 | Cc1ccc(C(=O)C(C)CN(C)C)cc1.Cl (stereo not shown) [Example 24, 2,4'-dimethyl-3-dimethylaminopropiophenone hydrochloride] | – | – | 57.3 ± 5.17% | 7.7 ± 3.67% | 4.3 ± 2.40% | –
20 | COc1ccc(C(=O)C(C)CN2CCCCC2)cc1.Cl (stereo not shown) [Example 25, 4'-methoxy-2-methyl-3-piperidinopropiophenone hydrochloride] | – | – | 80.3 ± 7.22% | 15.0 ± 14.50% | 6.7 ± 6.67% | –
21 | CCOc1ccc(C(=O)C(C)CN2CCCCC2)cc1.Cl (stereo not shown) [Example 26, 4'-ethoxy-2-methyl-3-piperidinopropiophenone hydrochloride] | – | – | 86.7 ± 3.84% | 12.3 ± 6.69% | 6.7 ± 5.24% | –
22 | Cc1ccc(C(=O)C(CN2CCCCC2)c2ccccc2)cc1 (stereo not shown) [Example 27, 4'-methyl-2-phenyl-3-piperidinopropiophenone hydrochloride] | – | – | – | – | – | inhibition at 200 µM (Peritoneal cavity cells): 78.5%
23 | CC(CN1CCCCC1C)C(=O)c1ccc2ccccc2c1 (stereo not drawn) [Example 28, 2-methyl-3-(2-methylpiperidino)-β-propionaphthone hydrochloride] | 18.5 ± 6.5% | 40.7% | – | – | – | –
24 | CC(CN1CCC(Cc2ccccc2)CC1)C(=O)c1ccc2ccccc2c1 (stereo not drawn) [Example 29, 2-methyl-3-(4-benzylpiperidino)-β-propionaphthone hydrochloride] | 61 ± 3.6% | 98.7% | – | – | – | –
25 | Cc1ccc(C(=O)CCN2CCCCC2)cc1C [Example 30, 3',4'-dimethyl-3-piperidinopropiophenone hydrochloride] | 19.4 ± 7.8% | 50.3% | – | – | – | –
26 | O=C(CCN1CCCCC1)c1ccc2ccccc2c1 [Example 31, 3-piperidino-β-propionaphthone hydrochloride] | – | – | – | – | – | inhibition at 50 µM (Peritoneal cavity cells): 53.4 ± 9.1%; inhibition at 100 µM (Peritoneal cavity cells): 89.6%
27 | CCC(CN1CCCCC1)C(=O)c1ccc2ccccc2c1 (stereo not drawn) [Example 32, 2-ethyl-3-piperidino-β-propionaphthone hydrochloride] | 27.2 ± 8.1% | 42% | – | – | – | –
28 | CC(CN1CCCCC1)C(=O)c1ccc2c(c1)CCC2 (stereo not shown) [Example 33, 1-(5-indanyl)-2-methyl-3-piperidinopropanone hydrochloride] | 14.4 ± 2.6% | – | – | – | – | –
29 | CCc1ccc(C(=O)C(C)CN2CCCCC2)cc1CC (stereo not shown) [Example 34, 3',4'-diethyl-2-methyl-3-piperidinopropiophenone hydrochloride] | 29.1 ± 7.5% | – | – | – | – | –
30 | CCCc1ccc(C(=O)C(C)CN2CCCCC2)cc1 (stereo not shown) [Example 36, 4'-n-propyl-2-methyl-3-piperidinopropiophenone hydrochloride] | 23.6 ± 7.7% | – | – | – | – | –
31 | COc1ccc2cc(C(=O)CCN3CCCCC3)ccc2c1 [Example 39, 6'-methoxy-3-piperidino-2'-propionaphthone hydrochloride] | – | 85% | – | – | – | –
32 | COc1ccc2cc(C(=O)C(C)CN3CCCCC3)ccc2c1 (stereo not shown) [Example 40, 6'-methoxy-2-methyl-3-piperidino-2'-propionaphthone hydrochloride] | – | 84% | – | – | – | –
33 | COc1ccc(C(=O)C(C)CN2CCCCC2)cc1Cl (stereo not shown) [Example 49, 3'-chloro-4'-methoxy-2-methyl-3-piperidinopropiophenone hydrochloride] | – | 38% | – | – | – | –
34 | CC(CN1CCCCC1)C(=O)c1ccc(Cl)c(Cl)c1 (stereo not shown) [Example 50, 3',4'-dichloro-2-methyl-3-piperidinopropiophenone hydrochloride] | – | 73% | – | – | – | –
35 | Cc1ccc2cc(C(=O)C(C)CN3CCCCC3)ccc2c1 (stereo not shown) [Example 51, 2,6'-dimethyl-3-piperidino-2'-propionaphthone hydrochloride] | – | 37% | – | – | – | –
